Assay: Mouse Activity and Screen Test Procedure (MAST): screen test failure (ST)
Settings: for Inhibition of screen test failure: percent of mice falling off the screen; for MAST ST LAD: lowest dose at which an A rating is achieved, screen test, i.p., mouse
Experimental: Nine unfasted Swiss-Webster male mice weighing 20-30 g are equally divided into three groups for each drug dose to be tested. That is, data for each dose level was generated by three separate groups of three mice each.
A minimum of three dose levels (10, 30, and 100 mg/kg) are tested for each drug. Treatments are administered intraperitoneally one hour prior to testing. All dosages are calculated as parent compound and given in volumes of 10 ml/kg. Compounds are dissolved or suspended in 0.2% Methocel. Control animals are injected with Methocel.
Testing: A two part testing procedure is started one hour postinjection. First, the screen test (ST) is performed (see Pharmac. Biochem. Behav. 6, 351-353, 1977). Briefly this test consists of placing mice on individual wire screens which are then rotated 180 degrees at the start of a 60 second observation period. The number of mice falling off the inverted screen is recorded.
Data: The data obtained from the screen test are expressed as percent of mice falling off the screen. Data derived from locomotor activity of drug treated mice are compared to the activity of vehicle treated animals and are expressed as percent inhibition of spontaneous locomotion. All percentages reported for inhibition of locomotion (LI) are based upon data accumulated for one hour. Both phases of testing are graded: A=60-100%; C=31-59%; and N=0-30%. An overall dose rating is obtained by the following criteria:
LAD refers to the lowest dose at which an A rating is achieved. […] The compounds are identified in the Examples.

Row | Structure (SMILES) | MAST ST LAD [mg/kg] | also measured
1 | OC[C@H]1O[C@@H](n2cnc3c(NCCC(c4ccccc4)c4ccccc4)ncnc32)[C@H](O)[C@@H]1O [Example 2, N^6-(3,3-Diphenylpropyl)adenosine] | > 100 | Inhibition of screen test failure (10 mg/kg i.p.): 0%; Inhibition of screen test failure (30 mg/kg i.p.): 0%; Inhibition of screen test failure (100 mg/kg i.p.): 0%
2 | OC[C@H]1O[C@@H](n2cnc3c(NCC(c4ccccc4)c4ccccc4)nc(Cl)nc32)[C@H](O)[C@@H]1O [Example 3, N^6-(2,2-Diphenylethyl)-2-chloroadenosine] | > 100 | Inhibition of screen test failure (10 mg/kg i.p.): 0%; Inhibition of screen test failure (30 mg/kg i.p.): 11%; Inhibition of screen test failure (100 mg/kg i.p.): 44%
3 | Nc1nc(NCC(c2ccccc2)c2ccccc2)c2ncn([C@@H]3O[C@H](CO)[C@@H](O)[C@H]3O)c2n1 [Example 4, N^6-(2,2-Diphenylethyl)-2-aminoadenosine] | > 100 | Inhibition of screen test failure (10 mg/kg i.p.): 0%; Inhibition of screen test failure (30 mg/kg i.p.): 11%; Inhibition of screen test failure (100 mg/kg i.p.): 22%
4 | OC[C@H]1O[C@@H](n2cnc3c(NC(c4ccccc4)c4ccccc4)ncnc32)[C@H](O)[C@@H]1O [Example 5, N^6 -Diphenylmethyladenosine] | > 100 | –
5 | OC[C@H]1O[C@@H](n2cnc3c(NCCCC(c4ccccc4)c4ccccc4)ncnc32)[C@H](O)[C@@H]1O [Example 6, N^6-(4,4-Diphenylbutyl)adenosine] | > 100 | –
6 | OC[C@H]1O[C@@H](n2cnc3c(NCCCCC(c4ccccc4)c4ccccc4)ncnc32)[C@H](O)[C@@H]1O [Example 7, N^6-(5,5-Diphenylpentyl)adenosine] | > 100 | –
7 | CC(CNc1ncnc2c1ncn2[C@@H]1O[C@H](CO)[C@@H](O)[C@H]1O)(c1ccccc1)c1ccccc1 [Example 8, N^6-(2,2-Diphenylpropyl)adenosine] | > 100 | –
8 | Cc1cccc(C(CNc2ncnc3c2ncn3[C@@H]2O[C@H](CO)[C@@H](O)[C@H]2O)c2ccccc2)c1 (stereo partly drawn) [Example 9, N^6-(2-(3-Methylphenyl)-2-phenylethyl)adenosine] | 100 | –
9 | OC[C@H]1O[C@@H](n2cnc3c(NCC(c4ccccc4)c4ccc(F)cc4)ncnc32)[C@H](O)[C@@H]1O (stereo partly drawn) [Example 10, N^6-(2-(4-Fluorophenyl)-2-phenylethyl)adenosine] | > 100 | –
10 | OC[C@H]1O[C@@H](n2cnc3c(NCC(c4ccccc4)c4ccc(F)cc4)nc(Cl)nc32)[C@H](O)[C@@H]1O (stereo partly drawn) [Example 11, N^6-(2-(4-Fluorophenyl)-2-phenylethyl)-2-chloroadenosine] | > 100 | –
11 | Nc1nc(NCC(c2ccccc2)c2ccc(F)cc2)c2ncn([C@@H]3O[C@H](CO)[C@@H](O)[C@H]3O)c2n1 (stereo partly drawn) [Example 12, N^6-(2-(4-Fluorophenyl)-2-phenylethyl)-2-amino adenosine] | > 100 | –

Now from value to compound, other results behind:

Row | MAST ST LAD [mg/kg] | Structure (SMILES) | also measured
12 | > 100 | OC[C@H]1O[C@@H](n2cnc3c(NCC(c4ccc(F)cc4)c4ccc(F)cc4)ncnc32)[C@H](O)[C@@H]1O [Example 13, N^6-(2,2-Di-(4-fluorophenyl)ethyl)adenosine] | –
13 | > 100 | OC[C@H]1O[C@@H](n2cnc3c(NCC(c4ccccc4)c4cccc(Cl)c4)ncnc32)[C@H](O)[C@@H]1O (stereo partly drawn) [Example 14, N^6-(2-(3-Chlorophenyl)-2-phenylethyl)adenosine] | –
14 | > 100 | OC[C@H]1O[C@@H](n2cnc3c(NCC(c4ccccc4)c4ccc(Cl)cc4)ncnc32)[C@H](O)[C@@H]1O (stereo partly drawn) [Example 15, N^6-(2-(4-Chlorophenyl)-2-phenylethyl)adenosine] | –
15 | > 100 | Nc1nc(NCC(c2ccccc2)c2ccc(Cl)cc2)c2ncn([C@@H]3O[C@H](CO)[C@@H](O)[C@H]3O)c2n1 (stereo partly drawn) [Example 16] | –
16 | > 100 | OC[C@H]1O[C@@H](n2cnc3c(NCC(c4ccc(Cl)cc4)c4ccc(Cl)cc4)ncnc32)[C@H](O)[C@@H]1O [Example 17, N^6-(2,2-Di(4-chlorophenyl)ethyl)adenosine] | –
17 | > 30 | Nc1nc(NCC(c2ccc(Cl)cc2)c2ccc(Cl)cc2)c2ncn([C@@H]3O[C@H](CO)[C@@H](O)[C@H]3O)c2n1 [Example 18] | –
18 | 30 | COc1ccc(C(CNc2ncnc3c2ncn3[C@@H]2O[C@H](CO)[C@@H](O)[C@H]2O)c2ccccc2)cc1 (stereo partly drawn) [Example 19, N^6-(2-(4-Methoxyphenyl)-2-phenylethyl)adenosine] | –
19 | > 100 | CC(CNc1nc(N)nc2c1ncn2[C@@H]1O[C@H](CO)[C@@H](O)[C@H]1O)(c1ccccc1)c1ccccc1 [Example 21, N^6-(2,2-Diphenylpropyl)-2-aminoadenosine] | –
20 | 100 | OC[C@H]1O[C@@H](n2cnc3c(NCC(O)(c4ccccc4)c4ccccc4)ncnc32)[C@H](O)[C@@H]1O [Example 22, N^6-(2,2-Diphenyl-2-hydroxyethyl)adenosine] | –
21 | > 100 | Nc1nc(NCC(O)(c2ccccc2)c2ccccc2)c2ncn([C@@H]3O[C@H](CO)[C@@H](O)[C@H]3O)c2n1 [Example 23, N^6-(2,2-Diphenyl-2-hydroxyethyl)-2-aminoadenosine] | –
22 | > 30 | COC(=O)C(CNc1ncnc2c1ncn2[C@@H]1O[C@H](CO)[C@@H](O)[C@H]1O)(c1ccccc1)c1ccccc1 [Example 24, N^6-(2-Carbomethoxy-2,2-diphenylethyl)adenosine] | –
23 | > 100 | CC(=O)OC[C@H]1O[C@@H](n2cnc3c(NCC(c4ccccc4)c4ccccc4)ncnc32)[C@H](OC(C)=O)[C@@H]1OC(C)=O [Example 25, 2',3',5'-Tri-O-acetyl-N^6-(2,2-diphenylethyl)adenosine] | –
24 | > 100 | O=C(OC[C@H]1O[C@@H](n2cnc3c(NCC(c4ccccc4)c4ccccc4)ncnc32)[C@H](OC(=O)c2ccccc2)[C@@H]1OC(=O)c1ccccc1)c1ccccc1 [Example 26, 2',3',5'-Tri-O-benzoyl-N^6-(2,2-diphenylethyl) adenosine] | –
25 | > 100 | CC(=O)OC[C@H]1O[C@@H](n2cnc3c(NCC(c4ccccc4)c4ccccc4)nc(Cl)nc32)[C@H](OC(C)=O)[C@@H]1OC(C)=O [Example 27, 2',3',5'-Tri-O-acetyl-N^6-(2,2-diphenylethyl)-2-chloroadenosine] | –
26 | > 30 | O=P(O)(O)OC[C@H]1O[C@@H](n2cnc3c(NCC(c4ccccc4)c4ccccc4)ncnc32)[C@H](O)[C@@H]1O [Example 28, N^6-(2,2-Diphenylethyl)adenosine-5'-phosphate] | –
27 | > 100 | CC1(C)O[C@@H]2[C@H](O1)[C@@H](CO)O[C@H]2n1cnc2c(NCC(c3ccccc3)c3ccccc3)ncnc21 [Example 29, 2',3'-O-Isopropylidene-N^6-(2,2-diphenylethyl) adenosine] | –

Source: US4657898A, “N^6 -substituted adenosines and method of use” (Warner-Lambert Company, priority 1985, dated 1987)
